Experimental data as given in paper PMC8395767, “Worsening of the Toxic Effects of (±)Cis-4,4′-DMAR Following Its Co-Administration with (±)Trans-4,4′-DMAR: Neuro-Behavioural, Physiological, Immunohistochemical and Metabolic Studies in Mice” (International Journal of Molecular Sciences, 2021).
Marks after values point to notes of the source that are not given here.

Tests used:
[1] = tested on: NOX-2; assay: Immunohistochemistry, frontal cortex: NOX-2; type: in vivo, mice; settings: vs control
Excerpt: Following the acute death or the sacrifice of the animals (after 5-h observation period by dislocation of the spine), brains were taken. These were fixed in 4% buffered formalin and then sampled and incorporated into the paraffin (Leica ASP300 processor, Histoline TEC2900 incorporator; Leica Microsystems Srl, Buccinasco, Milano, Italy). Subsequently, the cut (performed with the Leica HistoCore autocut microtome; Leica Microsystems Srl, Buccinasco, Milano, Italy) was designed to create sections with a thickness of 5 µm for each sample.
On 5-µm-thick paraffined […] sections, we evaluated the expression of a panel of markers: heat shock proteins (HSP27, HSP70, HSP90), SMAC/DIABLO, NF-kB, iNOS, NOX-2, NT, 8-OHDG.
We used a detection system composed of a biotinylated secondary antibody and HRP-conjugated streptavidin (4plus HRP Universal Detection, Biocare Medical). […] In the pictures (sections of the frontal cortex; Figure 3, Figure 4 and Figure 5) to evaluate the variation in the expression of markers (Smac, NOX2, iNOS, 8-OHdG, NT, HSP27, HSP70, HSP90) following treatments, the change in intensity of brown colour (staining of the immunohistochemical technique) in the control and treated tissue was measured. Quantification of Smac, NOX2, iNOS, 8-OHdG, NT, HSP27, HSP70 and HSP90 positive-stained areas was performed by the ImageJ software (imagej.nih.gov/ij/ Accessed date 12 May 2020). […]

[2] = tested on: mice; assay: Spontaneous and stimulated aggressiveness (bites of a grey cloth); type: in vivo
Method: The effects of (±)cis-4,4′-DMAR, (±)trans-4,4′-DMAR and their co-administration were investigated by a protocol widely used in studies of “safety pharmacology” for the preclinical characterization of new molecules in rodents. This protocol includes a series of observational behavioural tests carried out in a consecutive manner that monitor the animal responses up to 5 h after compound injections. In the present study, we reported the observation of physiological (sweating, salivation, core temperature) and neuro-behavioural (detection of psychomotor agitation, spontaneous and stimulated aggressiveness, convulsions) changes occurring in mice after injection of (±)cis-4,4′-DMAR, (±)trans-4,4′-DMAR and their co-administration. Before pharmacological treatment the mouse was placed on a square plate (30 cm× 30 cm) raised from the ground (20 cm) and left free to move on the plate for 10 min (habituation period). The animal was then injected with the vehicle, substances alone ((±)cis-4,4′-DMAR or (±)trans-4,4′-DMAR) or in cis + trans co-administration and placed on the plate. From this moment, the recording time of the physiological and neuro-behavioural responses started, and these were detected in 5-min sessions.
After the first 5 min, the animal was removed from the plate; the body core temperature was then measured, and the aggression tests were performed. The 5-min observation period was repeated at 15–30–60–90–120–180–240–300. Psychomotor agitation in the mouse was not simply related to an increase in spontaneous locomotion itself, but by an “unusual hyperactivity” which was characterised by rapid and sudden horizontal displacements in all directions, sustained turning behaviour, involuntary falls from the high plate during the evaluation of the tests, stereotyped movements and rearing activity. Mouse sweating and salivation were reported only if present or not. The core temperature was determined using a probe (1 mm diameter) that was gently inserted after lubrication with liquid Vaseline into the rectum of the mouse (to about 2 cm) and left in position until the temperature stabilised (about 10 s). The probe was connected to a digital thermometer. Spontaneous aggressive response was measured based on the number of times a mouse bit a grey cloth put in front of its snout. During the test, each mouse was free to move within the cage. In the case of stimulated aggressiveness, each mouse was manually restrained and held in a supine position following which an object was brought near the mouth. For both spontaneous and stimulated aggressive behaviour tests, a grey cloth was placed in front of the nose of each mouse 10 consecutive times (score 0/10 not aggressive, score 10/10 very aggressive). Convulsions were defined as a loss of righting reflexes for at least 5 s, combined with the presence of body tremors and clonic or tonic limb movements. Deaths caused by 4-4’-DMAR injection occurring during the observation period (5 h) were also reported as frequency (%) and time of death (min). Experiments were conducted inside the LARP (Centralised Preclinical Research Laboratory, University of Ferrara, Ferrara, Italy) in a thermo-stated (temperature 20–22 °C, humidity about 45–55%) and light controlled (about 150 lux) room, in which there was a background noise of about 40 ± 4 dB. The experiments, conducted in blind by trained observers working together in pairs, were videotaped and eventually analysed off-line by a different trained operator. The experiments were performed between 8:30 a.m. and 2:00 p.m.
Sweating and salivation were expressed as frequency (e.g., % of animals that developed symptoms); psychomotor agitation was expressed as frequency (% of animals) and duration (total time in mins). Core temperature values were expressed as the difference between control temperature (before injection) and temperature following drug administration (Δ°C). […]

[3] = tested on: SERT; design: method as in PMID 25331619; settings: rat brain tissue, lower potency than (±)cis-4,4′-DMAR; cited from earlier work
[4] = tested on: NET; design: method as in PMID 25331619; settings: rat brain tissue, lower potency than (±)cis-4,4′-DMAR; cited from earlier work
[5] = 10 mg/kg i.p., n=4 mice (animals of the urine excretion study)

| SMILES | Immunoreactivity of NOX-2 in the frontal cortex ([1]; 60 mg/kg) | Immunoreactivity of NOX-2 in the frontal cortex ([1]; 10 and 30 mg/kg) | Aggressiveness Stimulated Frequency % (n° of mice) [2, 5] | Aggressiveness Stimulated Score (n° of bites) [2, 5] | Aggressiveness Stimulated Frequency % (n° of mice) ([2]; 10 mg/kg i.p., n=6 mice) | Aggressiveness Stimulated Score (n° of bites) ([2]; 10 mg/kg i.p., n=6 mice) | Aggressiveness Stimulated Frequency % (n° of mice) ([2]; 30 mg/kg i.p., n=6 mice) | Aggressiveness Stimulated Score (n° of bites) ([2]; 30 mg/kg i.p., n=6 mice) | Spontaneous aggressiveness ([2]; mice, i.p., 60 mg/kg could not be tested) | Mode of action at SERT [3] | Mode of action at NET [4] |
| --- | --- | --- | --- | --- | --- | --- | --- | --- | --- | --- | --- |
| Cc1ccc(C2OC(N)=NC2C)cc1 (stereo not drawn) [cis-4,4’-DMAR, 4-methyl-5-(4-methylphenyl)-4,5-dihydrooxazol-2-amine] | did not affect | reduced | 100% (4) | 5 ± 0.23 n° of bites | 100% (6) | 6 ± 0.23 n° of bites | 100% (6) | 10 ± 0.23 ^b n° of bites | not associated with increased levels | – | – |
| Cc1ccc(C2OC(N)=NC2C)cc1 (stereo not drawn) [trans-4,4’-DMAR, 4-methyl-5-(4-methylphenyl)-4,5-dihydrooxazol-2-amine] | – | – | – | – | – | – | – | – | – | uptake blocker | substrate-type releaser |
